# Measured values reported in US8722656B2, “Cephalosporins useful as antibacterial agents” (Zoetis LLC, priority 2011, dated 2014).
# Legend:
# E. coli 25922 = experiment: Dilution antimicrobial susceptibility test (M07-A8), E. coli; assay type: cell-based, Escherichia coli; details: for MIC: Escherichia coli, antibacterial activity by dilution susceptibility test, isolate 25922; for E. coli/P. multocida: selectivity for P. multocida over E. coli (ratio of the two values)
# Description: (§1) Compounds of the present invention were tested against an assortment of Gram-negative and Gram-positive organisms using the industrial standard techniques described in Methods for Dilution Antimicrobial Susceptibility Tests for Bacteria That grow Aerobically; Approved Standard-Eighth Edition, […]-A8, Vol. 29 No. 2 Replaces […]-A7 Vol. 26 No. 2. […] When comparing the activity against these isolates with that of the marketed human health drug of cefepime (screened in the same panel), the exemplified compounds of the present invention show >200 times more selectivity over E. coli.
# M. haemo 43411 = experiment: Dilution antimicrobial susceptibility test (M07-A8), M. haemolytica; assay type: cell-based; details: Mannheimia haemolytica; antibacterial activity by dilution susceptibility test, isolate 43411
# Description: as §1
# P. multo 43719 = experiment: Dilution antimicrobial susceptibility test (M07-A8), P. multocida; assay type: cell-based; details: Pasteurella multocida; antibacterial activity by dilution susceptibility test, isolate 43719
# Description: as §1
MIC (E. coli 25922),MIC (P. multo 43719),SMILES,E. coli/P. multocida (E. coli 25922),MIC (M. haemo 43411)
16 µg/mL,0.03 µg/mL,"CO/N=C(\C(=O)N[C@@H]1C(=O)N2C(C(=O)O)=C(Cc3cccc(CSC(C)=O)c3C)CS[C@H]12)c1csc(N)n1 [Example 1, (6R,7R)-3-{3-[(acetylsulfanyl)methyl]-2-methylbenzyl}-7-{[(2Z)-2-(2-amino-1,3-thiazol-4-yl)-2-(methoxyimino)acetyl]amino}-8-oxo-5-thia-1-azabicyclo[4.2.0]oct-2-ene-2-carboxylic acid]",533,0.06 µg/mL
32 µg/mL,0.06 µg/mL,"CO/N=C(\C(=O)N[C@@H]1C(=O)N2C(C(=O)O)=C(Cc3ccc(CSC(C)=O)cc3C)CS[C@H]12)c1csc(N)n1 [Example 2, (6R,7R)-3-{4-[(acetylsulfanyl)methyl]-2-methylbenzyl}-7-{[(2Z)-2-(2-amino-1,3-thiazol-4-yl)-2-(methoxyimino)acetyl]amino}-8-oxo-5-thia-1-azabicyclo[4.2.0]oct-2-ene-2-carboxylic acid]",533,0.25 µg/mL
32 µg/mL,0.125 µg/mL,"CO/N=C(\C(=O)N[C@@H]1C(=O)N2C(C(=O)O)=C(Cc3cc(CSC(C)=O)ccc3C)CS[C@H]12)c1csc(N)n1 [Example 3, (6R,7R)-3-{5-[(acetylsulfanyl)methyl]-2-methylbenzyl}-7-{[(2Z)-2-(2-amino-1,3-thiazol-4-yl)-2-(methoxyimino)acetyl]amino}-8-oxo-5-thia-1-azabicyclo[4.2.0]oct-2-ene-2-carboxylic acid]",256,0.25 µg/mL
32 µg/mL,0.25 µg/mL,"CO/N=C(\C(=O)N[C@@H]1C(=O)N2C(C(=O)O)=C(Cc3c(C)ccc(CSC(C)=O)c3C)CS[C@H]12)c1csc(N)n1 [Example 4, (6R,7R)-3-{3-[(acetylsulfanyl)methyl]-2,6-dimethylbenzyl}-7-{[(2Z)-2-(2-amino-1,3-thiazol-4-yl)-2-(methoxyimino)acetyl]amino}-8-oxo-5-thia-1-azabicyclo[4.2.0]oct-2-ene-2-carboxylic acid]",128,0.5 µg/mL
32 µg/mL,0.06 µg/mL,"CO/N=C(\C(=O)N[C@@H]1C(=O)N2C(C(=O)O)=C(Cc3c(C)c(CO)cc(CSC(C)=O)c3C)CS[C@H]12)c1csc(N)n1 [Example 5, (6R,7R)-3-{3-[(acetylsulfanyl)methyl]-5-(hydroxymethyl)-2,6-dimethylbenzyl}-7-{[(2Z)-2-(2-amino-1,3-thiazol-4-yl)-2-(methoxyimino)acetyl]amino}-8-oxo-5-thia-1-azabicyclo[4.2.0]oct-2-ene-2-carboxylic acid]",533,0.125 µg/mL
32 µg/mL,0.25 µg/mL,"CO/N=C(\C(=O)N[C@@H]1C(=O)N2C(C(=O)O)=C(Cc3c(C)cc(CSC(C)=O)cc3C)CS[C@H]12)c1csc(N)n1 [Example 6, (6R,7R)-3-{4-[(acetylsulfanyl)methyl]-2,6-dimethylbenzyl}-7-{[(2Z)-2-(2-amino-1,3-thiazol-4-yl)-2-(methoxyimino)acetyl]amino}-8-oxo-5-thia-1-azabicyclo[4.2.0]oct-2-ene-2-carboxylic acid]",128,0.5 µg/mL
16 µg/mL,0.06 µg/mL,"CO/N=C(\C(=O)N[C@@H]1C(=O)N2C(C(=O)O)=C(Cc3cccc(NC(=O)CSC(C)=O)c3C)CS[C@H]12)c1csc(N)n1 [Example 7, (6R,7R)-3-(3-{[(acetylsulfanyl)acetyl]amino}-2-methylbenzyl)-7-{[(2Z)-2-(2-amino-1,3-thiazol-4-yl)-2-(methoxyimino)acetyl]amino}-8-oxo-5-thia-1-azabicyclo[4.2.0]oct-2-ene-2-carboxyl is acid]",266,0.06 µg/mL
16 µg/mL,0.06 µg/mL,"CO/N=C(\C(=O)N[C@@H]1C(=O)N2C(C(=O)O)=C(Cc3cc(NC(=O)CSC(C)=O)ccc3C)CS[C@H]12)c1csc(N)n1 [Example 8, (6R,7R)-3-(5-{[(acetylsulfanyl)acetyl]amino}-2-methylbenzyl)-7-{[(2Z)-2-(2-amino-1,3-thiazol-4-yl)-2-(methoxyimino)acetyl]amino}-8-oxo-5-thia-1-azabicyclo[4.2.0]oct-2-ene-2-carboxyl is acid]",266,0.06 µg/mL
64 µg/mL,0.25 µg/mL,CCCN(C(=O)CSC(C)=O)c1ccc(CC2=C(C(=O)O)N3C(=O)[C@@H](NC(=O)/C(=N\OC)c4csc(N)n4)[C@H]3SC2)cc1 [Example 9],256,0.5 µg/mL
32 µg/mL,0.06 µg/mL,CO/N=C(\C(=O)N[C@@H]1C(=O)N2C(C(=O)O)=C(Cc3cccc(N(C)C(=O)CSC(C)=O)c3)CS[C@H]12)c1csc(N)n1 [Example 10],533,0.125 µg/mL
4 µg/mL,0.03 µg/mL,"CO/N=C(\C(=O)N[C@@H]1C(=O)N2C(C(=O)O)=C(Cc3cccc(NC(=O)CSC)c3)CS[C@H]12)c1csc(N)n1 [Example 11, (6R,7R)-7-{[(2Z)-2-(2-amino-1,3-thiazol-4-yl)-2-(methoxyimino)acetyl]amino}-3-(3-{[(methylsulfanyl)acetyl]amino}benzyl)-8-oxo-5-thia-1-azabicyclo[4.2.0]oct-2-ene-2-carboxylic acid]",133,0.03 µg/mL
8 µg/mL,0.06 µg/mL,"CO/N=C(\C(=O)N[C@@H]1C(=O)N2C(C(=O)O)=C(Cc3cccc(NC(=O)CSC(C)=O)c3)CS[C@H]12)c1csc(N)n1 [Example 12, (6R,7R)-3-(3-{[(acetylsulfanyl)acetyl]amino}benzyl)-7-{[(2Z)-2-(2-amino-1,3-thiazol-4-yl)-2-(methoxyimino)acetyl]amino}-8-oxo-5-thia-1-azabicyclo[4.2.0]oct-2-ene-2-carboxylic acid]",133,0.03 µg/mL
8 µg/mL,0.03 µg/mL,"CO/N=C(\C(=O)N[C@@H]1C(=O)N2C(C(=O)O)=C(Cc3cccc(N(C(=O)CS)C(C)C)c3)CS[C@H]12)c1csc(N)n1 [Example 13, (6R,7R)-7-{[(2Z)-2-(2-amino-1,3-thiazol-4-yl)-2-(methoxyimino)acetyl]amino}-8-oxo-3-{3-[propan-2-yl(sulfanylacetyl)amino]benzyl}-5-thia-1-azabicyclo[4.2.0]oct-2-ene-2-carboxylic acid]",266,0.06 µg/mL
16 µg/mL,0.03 µg/mL,"CO/N=C(\C(=O)N[C@@H]1C(=O)N2C(C(=O)O)=C(Cc3cc(NS(C)(=O)=O)cc(C)c3C)CS[C@H]12)c1csc(N)n1 [Example 14, (6R,7R)-7-{[(2Z)-2-(2-amino-1,3-thiazol-4-yl)-2-(methoxyimino)acetyl]amino}-3-{2,3-dimethyl-5-[(methylsulfonyl)amino]benzyl}-8-oxo-5-thia-1-azabicyclo[4.2.0]oct-2-ene-2-carboxylic acid]",533,0.06 µg/mL
32 µg/mL,0.125 µg/mL,"CO/N=C(\C(=O)N[C@@H]1C(=O)N2C(C(=O)O)=C(Cc3cc(NS(C)(=O)=O)c(C)cc3C)CS[C@H]12)c1csc(N)n1 [Example 15, (6R,7R)-7-{[(2Z)-2-(2-amino-1,3-thiazol-4-yl)-2-(methoxyimino)acetyl]amino}-3-{2,4-dimethyl-5-[(methylsulfonyl)amino]benzyl}-8-oxo-5-thia-1-azabicyclo[4.2.0]oct-2-ene-2-carboxylic acid]",256,0.5 µg/mL
16 µg/mL,0.03 µg/mL,"CO/N=C(\C(=O)N[C@@H]1C(=O)N2C(C(=O)O)=C(Cc3cccc(N(C)S(C)(=O)=O)c3)CS[C@H]12)c1csc(N)n1 [Example 16, (6R,7R)-7-{[(2Z)-2-(2-amino-1,3-thiazol-4-yl)-2-(methoxyimino)acetyl]amino}-3-{3-[methyl(methylsulfonyl)amino]benzyl}-8-oxo-5-thia-1-azabicyclo[4.2.0]oct-2-ene-2-carboxylic acid]",533,0.03 µg/mL
8 µg/mL,0.03 µg/mL,"CO/N=C(\C(=O)N[C@@H]1C(=O)N2C(C(=O)O)=C(Cc3cccc(NS(C)(=O)=O)c3)CS[C@H]12)c1csc(N)n1 [Example 17, (6R,7R)-7-{[(2Z)-2-(2-amino-1,3-thiazol-4-yl)-2-(methoxyimino)acetyl]amino}-3-{3-[(methylsulfonyl)amino]benzyl}-8-oxo-5-thia-1-azabicyclo[4.2.0]oct-2-ene-2-carboxylic acid]",266,0.015 µg/mL
16 µg/mL,0.06 µg/mL,"CO/N=C(\C(=O)N[C@@H]1C(=O)N2C(C(=O)O)=C(Cc3cc(NS(C)(=O)=O)cc(OC)c3)CS[C@H]12)c1csc(N)n1 [Example 18, (6R,7R)-7-{[(2Z)-2-(2-amino-1,3-thiazol-4-yl)-2-(methoxyimino)acetyl]amino}-3-{3-methoxy-5-[(methylsulfonyl)amino]benzyl}-8-oxo-5-thia-1-azabicyclo[4.2.0]oct-2-ene-2-carboxylic acid]",266,0.08 µg/mL
8 µg/mL,0.008 µg/mL,"CO/N=C(\C(=O)N[C@@H]1C(=O)N2C(C(=O)O)=C(Cc3cc(C)cc(NS(C)(=O)=O)c3)CS[C@H]12)c1csc(N)n1 [Example 19, (6R,7R)-7-{[(2Z)-2-(2-amino-1,3-thiazol-4-yl)-2-(methoxyimino)acetyl]amino}-3-{3-methyl-5-[(methylsulfonyl)amino]benzyl}-8-oxo-5-thia-1-azabicyclo[4.2.0]oct-2-ene-2-carboxylic acid]",1000,8 µg/mL
